According to patent US20230142338A1, “THIOPHENYL DERIVATIVES USEFUL FOR MODULATING NUCLEIC ACID SPLICING” (REMIX THERAPEUTICS INC., priority 2020, published 2023):
pIC50: −log10 of the molar value.

Legend:
Format in all cases: cell-based
[1] = test system: Target C CJ mRNA; experiment: Gene panel canonical junction qPCR assay: Target C; conditions: Table 3, concentration having 50% response in CJ decrease, read-out: Target C IC50 (decrease in CJ mRNA levels)
Protocol: (§1) Compounds described herein were used to modulate RNA transcript abundance in cells. The expression of a target mRNA was measured by detecting the formation of an exon-exon junction in the canonical transcript (CJ). A compound mediated exon-inclusion event was detected by observing an increase in formation of a new junction with an alternative exon (AJ). Real-time qPCR assays were used to detect these splicing switches and interrogate the potency of various compounds towards different target genes. A high-throughput real time quantitative PCR (RT-qPCR) assay was developed to measure these two isoforms of the mRNA (CJ and AJ) for an exemplary gene, HTT, together with a control housekeeping gene, GAPDH or GUSB or PPIA, used for normalization. Briefly, the A673 or K562 cell line was treated with various compounds described herein (e.g., compounds of Formula (I)). After treatment, the levels of the HTT mRNA targets were determined from each sample of cell lysate by cDNA synthesis followed by qPCR.
(§2) The A673 cell line was cultured in DMEM with 10% FBS. Cells were diluted with full growth media and plated in a 96-well plate (15,000 cells in 100 ul media per well). The plate was incubated at 37° C. with 5% CO2 for 24 hours to allow cells to adhere. An 11-point 3-fold serial dilution of the compounds was made in DMSO then diluted in media in an intermediate plate. Compounds were transferred from the intermediate plate to the cell plate with the top dose at a final concentration of 10 uM in the well. Final DMSO concentration was kept at or below 0.25%. The cell plate was returned to the incubator at 37° C. with 5% CO2 for an additional 24 hours.
(§3) The K562 cell line was cultured in IMDM with 10% FBS. For K562, cells were diluted with full growth media and plated in either a 96-well plate (50,000 cells in 50 uL media per well) or a 384-well plate (8,000-40,000 cells in 45 uL media per well). An 11-point 3-fold serial dilution of the compounds were made in DMSO then diluted in media in an intermediate plate. Compound was transferred from the intermediate plate to the cell plate with the top dose at a final concentration of 10 uM in the well. Final DMSO concentration was kept at or below 0.25%. Final volume was 100 uL for 96-well plate and 50 uL for 384-well plate. The cell plate was then placed in an incubator at 37° C. with 5% CO2 for 24 hours.
(§4) The cells were then gently washed with 50 uL-100 uL cold PBS before proceeding to addition of lysis buffer. 30 uL-50 uL of room temperature lysis buffer with DNAse I (and optionally RNAsin) was added to each well. Cells were shaken/mixed thoroughly at room temperature for 5-10 minutes for lysis to take place and then 3 uL-5 uL of room temperature stop solution was added and wells were shaken/mixed again. After 2-5 minutes, the cell lysate plate was transferred to ice for RT-qPCR reaction setup. The lysates could also be frozen at −80° C. for later use.
(§5) In some cases, a direct lysis buffer was used. An appropriate volume of 3× lysis buffer (10 mM Tris, 150 mM NaCl, 1.5%-2.5% Igepal and 0.1-1 U/uL RNAsin, pH 7.4) was directly added to either K562 or A673 cells in media and mixed by pipetting 3 times. The plates were then incubated at room temperature with shaking/rocking for 20-50 minutes to allow for lysis to take place. After this time, the cell lysate plate was transferred to ice to set up for the RT-qPCR reactions. The lysates could also be frozen at −80° C. for later use.
(§6) To set up 10 uL RT-qPCR reactions, cell lysates were transferred to 384-well qPCR plates containing the master mix according to the table below. The plates were sealed, gently vortexed, and spun down before the run. The volumes were adjusted accordingly in some instances where the reaction was carried in 20 uL. The table below summarizes the components of the RT-qPCR reactions:
(§7) The RT-qPCR reaction was performed using a QuantStudio (ThermoFisher) under the following fast cycling conditions. […]

[2] = test system: SMN2 CJ mRNA; experiment: Gene panel canonical junction qPCR assay: SMN2; conditions: Table 3, concentration having 50% response in CJ decrease, read-out: SMN2 IC50 (decrease in CJ mRNA levels)
Protocol: as §1, §2, §3, §4, §5, §6, §7

[3] = test system: HTT CJ mRNA; experiment: Gene panel canonical junction qPCR assay: HTT; conditions: Table 3, concentration having 50% response in CJ decrease, read-out: HTT IC50 (decrease in CJ mRNA levels)
Protocol: as §1, §2, §3, §4, §5, §6, §7

[4] = test system: HTT CJ mRNA; experiment: Splicing assay (RT-qPCR): decrease in HTT canonical junction (CJ) mRNA; conditions: A673 or K562 cells, 24 hours treatment; concentration having 50% response in CJ mRNA decrease
Protocol: as §1, §2, §3, §4, §5, §6, §7

[5] = test system: HTT AJ mRNA; experiment: Splicing assay (RT-qPCR): increase in HTT alternative junction (AJ) mRNA; conditions: A673 or K562 cells, 24 hours treatment; concentration having 50% response in AJ mRNA increase
Protocol: as §1, §2, §3, §4, §5, §6, §7

Row | Compound | pIC50 [1] | pIC50 [2] | pIC50 [3] | AC50 [4] [nM] | AC50 [5] [nM]
1 | Cc1cn2nc(NC(=O)c3sc([C@@H]4CCN[C@H](C)C4)cc3F)cc(C)c2n1 [Compound 101, N-[2,8-dimethylimidazo[1,2-b]pyridazin-6-yl]-3-fluoro-5-[(2R,4R)-2-methylpiperidin-4-yl] thiophene-2-carboxamide] | 6.00 to 7.00 | > 7.00 | 6.00 to 7.00 | 100 to 1000 | 100 to 1000
2 | Cc1cn2nc(NC(=O)c3sc([C@H]4CCN[C@@H](C)C4)cc3F)cc(C)c2n1 [Compound 102, N-[2,8-dimethylimidazo[1,2-b]pyridazin-6-yl]-3-fluoro-5-[(2S,4S)-2-methylpiperidin-4-yl] thiophene-2-carboxamide] | 5.00 to 6.00 | 6.00 to 7.00 | 6.00 to 7.00 | 100 to 1000 | 1000 to 10000
3 | Cc1cn2nc(NC(=O)c3sc([C@H]4CCN[C@H](C)C4)cc3F)cc(C)c2n1 [Compound 103, N-[2,8-dimethylimidazo[1,2-b]pyridazin-6-yl]-3-fluoro-5-[(2R,4S)-2-methylpiperidin-4-yl] thiophene-2-carboxamide] | 5.00 to 6.00 | > 7.00 | 6.00 to 7.00 | 100 to 1000 | 100 to 1000
4 | Cc1cn2nc(NC(=O)c3sc([C@@H]4CCN[C@@H](C)C4)cc3F)cc(C)c2n1 [Compound 104, N-[2,8-dimethylimidazo[1,2-b]pyridazin-6-yl]-3-fluoro-5-[(2S,4R)-2-methylpiperidin-4-yl]thiophene-2-carboxamide] | 6.00 to 7.00 | > 7.00 | > 7.00 | < 100 | 100 to 1000
5 | Cc1cn2cc(-c3cc(F)c(C(=O)NC4CCN(C)CC4)s3)nc2c(C)n1 [Compound 109, 5-[6,8-dimethylimidazo[1,2-a]pyrazin-2-yl]-3-fluoro-N-(1-methylpiperidin-4-yl)thiophene-2-carboxamide] | – | – | – | 1000 to 10000 | > 10000
6 | Cc1cn2cc(-c3cc(F)c(C(=O)N[C@H]4CCN[C@@H](C)C4)s3)nc2c(C)n1 [Compound 112] | – | – | – | > 10000 | > 10000
7 | Cc1cn2cc(-c3cc(F)c(C(=O)N[C@H]4CCN[C@H](C)C4)s3)nc2c(C)n1 [Compound 113] | – | – | – | 100 to 1000 | > 10000
8 | Cc1cn2cc(NC(=O)c3sc([C@@H]4CCN[C@H](C)C4)cc3F)cc(F)c2n1 [Compound 114, 3-fluoro-N-[8-fluoro-2-methylimidazo[1,2-a]pyridin-6-yl]-5-[(2R,4R)-2-methylpiperidin-4-yl]thiophene-2-carboxamide] | 5.00 to 6.00 | > 7.00 | 6.00 to 7.00 | 100 to 1000 | 100 to 1000
9 | Cc1cn2cc(NC(=O)c3sc([C@H]4CCN[C@@H](C)C4)cc3F)cc(F)c2n1 [Compound 115, 3-fluoro-N-[8-fluoro-2-methylimidazo[1,2-a]pyridin-6-yl]-5-[(2S,4S)-2-methylpiperidin-4-yl]thiophene-2-carboxamide] | – | 6.00 to 7.00 | 6.00 to 7.00 | 100 to 1000 | 100 to 1000
10 | Cc1cn2cc(NC(=O)c3sc([C@@H]4CCN[C@@H](C)C4)cc3F)cc(F)c2n1 [Compound 116, 3-fluoro-N-[8-fluoro-2-methylimidazo[1,2-a]pyridin-6-yl]-5-[(2S,4R)-2-methylpiperidin-4-yl]thiophene-2-carboxamide] | 5.00 to 6.00 | > 7.00 | 6.00 to 7.00 | 100 to 1000 | 100 to 1000
11 | Cc1cn2cc(NC(=O)c3sc([C@H]4CCN[C@H](C)C4)cc3F)cc(F)c2n1 [Compound 117, 3-fluoro-N-[8-fluoro-2-methylimidazo[1,2-a]pyridin-6-yl]-5-[(2R,4S)-2-methylpiperidin-4-yl]thiophene-2-carboxamide] | 5.00 to 6.00 | 6.00 to 7.00 | 6.00 to 7.00 | 100 to 1000 | 1000 to 10000
12 | Cc1cn2cc(NC(=O)c3ccc(N4CCNC(C)C4)s3)cc(F)c2n1 (stereo not drawn) [Compound 122, N-[8-fluoro-2-methylimidazo[1,2-a]-pyridin-6-yl]-5-(3-methylpip-erazin-1-yl)-thiophene-2-carboxamide] | – | 6.00 to 7.00 | < 8.00 | > 10000 | > 10000
13 | Cc1cn2cc(NC(=O)c3sc(N4CCNCC4)cc3F)cc(F)c2n1 [Compound 126, 3-fluoro-N-[8-fluoro-2-methylimidazo[1,2-a]pyridin-6-yl]-5-(piperazin-1-yl)thiophene-2-carboxamide] | – | 6.00 to 7.00 | 5.00 to 6.00 | 1000 to 10000 | 1000 to 10000
14 | Cc1cn2cc(NC(=O)c3sc(N4CCNC(C)C4)cc3F)cc(F)c2n1 (stereo not drawn) [Compound 128, 3-fluoro-N-[8-fluoro-2-methylimidazo[1,2-a]pyridin-6-yl]-5-(3-methylpiperazin-1-yl)thiophene-2-carboxamide] | – | 6.00 to 7.00 | 5.00 to 6.00 | 1000 to 10000 | > 10000
15 | CCC1CN(c2cc(F)c(C(=O)Nc3cc(F)c4nc(C)cn4c3)s2)CCN1 (stereo not drawn) [Compound 130, 5-(3-ethylpiperazin-1-yl)-3-fluoro-N-[8-fluoro-2-methylimidazo[1,2-a]pyridin-6-yl]thiophene-2-carboxamide] | – | – | – | 1000 to 10000 | > 10000
16 | Cc1cn2cc(NC(=O)c3sc(N4CC5(CN(C)C5)C4)cc3F)cc(F)c2n1 [Compound 135, 3-fluoro-N-[8-fluoro-2-methylimidazo[1,2-a]pyridin-6-yl]-5-[6-methyl-2,6-diazaspiro[3.3]heptan-2-yl]thiophene-2-carboxamide] | – | – | – | 1000 to 10000 | > 10000
17 | Cc1cn2cc(NC(=O)c3sc(N4CCC(N(C)C)CC4)cc3F)cc(F)c2n1 [Compound 140, 5-[4-(dimethylamino)piperidin-1-yl]-3-fluoro-N-[8-fluoro-2-methylimidazo[1,2-a]pyridin-6-yl]thiophene-2-carboxamide] | – | – | – | 1000 to 10000 | 100 to 1000
18 | Cc1cn2cc(NC(=O)c3sc(C4CCNCC4)cc3F)cc(F)c2n1 [Compound 144, 3-fluoro-N-[8-fluoro-2-methylimidazo[1,2-a]pyridin-6-yl]-5-(piperidin-4-yl) thiophene-2-carboxamide] | – | > 7.00 | 6.00 to 7.00 | 100 to 1000 | 100 to 1000
19 | Cc1cn2cc(NC(=O)c3sc(C4CC(C)(C)NC(C)(C)C4)cc3F)cc(F)c2n1 [Compound 148, 3-fluoro-N-[8-fluoro-2-methylimidazo[1,2-a]pyridin-6-yl]-5-(2,2,6,6-tetramethylpiperidin-4-yl)thiophene-2-carboxamide] | – | – | – | 100 to 1000 | 100 to 1000
20 | Cc1cn2cc(NC(=O)c3sc(N4CCNC(C)C4)cc3F)nc2c(C)n1 (stereo not drawn) [Compound 168, N-[6,8-dimethylimidazo[1,2-a]pyrazin-2-yl]-3-fluoro-5-(3-methylpiperazin-1-yl)thiophene-2-carboxamide] | – | – | – | 1000 to 10000 | > 10000
21 | Cc1cn2cc(NC(=O)c3sc(N4CCNC(C)C4)c(Cl)c3Cl)cc(F)c2n1 (stereo not drawn) [Compound 186] | – | 5.00 to 6.00 | < 8.00 | > 10000 | > 10000
